Test results from US12324841B2, “Methods of treating cancer with a combination of an anti-PD-1 antibody and an anti-tissue factor antibody-drug conjugate” (GENMAB A/S, priority 2018, dated 2025).
Entries after “also recorded” stand apart in the source; their conditions may differ. Non-standard residues stand in square brackets, D forms with d. Residues, ends and D or L forms follow the SMILES beside them. *: point of attachment. Dolaproine = CO[C@@H]([C@@H]1CCCN1)[C@@H](C)C(=O)O; Dil = CC[C@H](C)[C@H](NC)[C@@H](CC(=O)O)OC; X1 = C[C@@H](N*)[C@@H](O)c1ccccc1; NMeV = CN[C@H](C(=O)O)C(C)C

Tests used:
[1] = tested on: HPAFII (pancreatic carcinoma); assay: Western blot analysis of ER stress induction in HPAFII cells; format: cell-based; settings: 18 hours (legend: 16 hours)
Method: (§1) Induction of cell death and release of ICD danger signals occurs concomitant with initiation of an ER stress response. Two Tissue Factor positive cell lines, HPAFII (pancreatic carcinoma) and MDA-MB-231 (breast cell carcinoma) were exposed to tisotumab vedotin ADC, an Isotype-MMAE ADC (H00-MMAE, IgG1 MMAE), or free MMAE for 18 hours and induction of ER stress monitored by western blot analysis. Phosphorylation of inositol-requiring transmembrane kinase/endonuclease 1 (IRE1) was detected after treatment with tisotumab vedotin ADC or MMAE free drug (FIG. 6). […] The ability for auristatins to prime the immune system to recognize tumor antigens opens the door for a myriad of combinatorial therapeutic options.

[2] = tested on: Tissue Factor positive cell lines; assay: Cell death and release of ATP and HMGB1 from Tissue Factor positive cell lines; format: cell-based
From the text: Auristatin ADC payloads disrupt the microtubule networks resulting in altered ER localization and function, which ultimately results in ER stress.

[3] = tested on: CD14+ monocyte/macrophages; assay: Monocyte/macrophage activation in PBMCs fed killed MDA-MB-231 cells; format: cell-based, human
From the text: FIGS. 7A and 7B is a series of graphs in which Tissue Factor positive MDA-MB-231 cells killed with various agents were fed to human peripheral blood mononuclear cells (PBMCs) and immune activation assessed by increased expression of activations markers on innate CD14+ monocyte/macrophages and induction of chemokine and cytokine production.
Immunogenic cell death, as mediated by MMAE, is regulated cell death that activates adaptive immune responses against antigens from dead and dying tumor cells, and allows for the generation of robust innate immune cell activation and subsequent cytotoxic T cell responses targeted towards specific tumor cell antigens. […] Furthermore, these monocyte/macrophages conditioned by ICD-killed cells promote activation of T cells, as evidenced by production of signature inflammatory cytokines associated with cytotoxic T cell responses.

T cells = assay: T cell activation in CSFE labeled PBMCs fed killed MDA-MB-231 cells, with or without pembrolizumab; format: cell-based, human; settings: 48 hours; for T cell proliferation (CSFE dilution) / production of IFNγ / production of IL12p70: without pembrolizumab
Method: FIG. 8A-8C is a series of graphs in which Tissue Factor positive MDA-MB-231 cells killed with various agents were fed to CSFE labeled human peripheral blood mononuclear cells (PBMCs) in the presence or absence of the PD1 targeting antibody pembrolizumab for 48 hours and T cells activation assessed by A) decreased CSFE fluorescent indicative of T cell proliferation and B) and C) cytokine production.
Induction of the innate immune response following exposure to cancer cells undergoing ICD sets up secondary T cell activation, which can be enhanced by concomitant pembrolizumab treatment.

[4] = tested on: MDA-MB-231 (breast cell carcinoma); assay: Western blot analysis of ER stress induction in MDA-MB-231 cells; format: cell-based; settings: MDA-MB-231, 18 hours (legend: 16 hours)
Method: as §1

HeLa cells [5] = assay: ATP and HMGB1 secretion from HeLa cells treated with MMAE; format: cell-based; settings: 100 nM MMAE, over 24 hours, vs untreated HeLa cells
From the text: Induction of ICD is also characterized by the secretion of ATP and HMGB1. Extracellular ATP serves as a strong chemotactic signal, promoting immune cell migration to the tumor site. Upon arrival, extracellular HMGB1 signals through various pro-inflammatory receptors (TLR2, TLR4, RAGE) to activate antigen-presenting cells, thereby promoting immune activity within the tumor.

HeLa cells [6] = assay: Western blot analysis of ER stress in HeLa cells treated with MMAE; format: cell-based; settings: 100 nM MMAE for 16 hours
Method: HeLa cells, a cervical cancer cell line, were cultured in Minimum Essential Medium (MEM) with 10% FBS, 10 mM HEPES, 1 mM sodium pyruvate, 2 mM L-glutamine, penicillin (100U/ml), and streptomycin (100 μg/ml). HeLa cells were treated with 100 nM MMAE for 16 hours and harvested in radioimmunoprecipitation assay buffer (RIPA) buffer for western blot analysis. […] Severe ER stress is a prerequisite to the exposure of pro-phagocytic signals on the surface of tumor cells, and can be indicated by activation of JNK signaling by phosphorylated IRE1.

[7] = tested on: murine tumor cells that stably express human TF; assay: Syngeneic tumor model: immunization with drug-killed human TF positive murine tumor cells, then tumor challenge; format: in vivo, Balb/c mice; settings: mice immunized with tumor cells killed by 1-5 μg per ml tisotumab vedotin or 100 nM MMAE
Method: Mouse tumor cells are transfected with plasmid constructs encoding human tissue factor (TF) and sgRNA-guided Cas9 nuclease (sgRNA/Cas9) to generate a murine cell line that expresses the human TF. Fluorescence activated cell sorting (FACS) yields a clonal population of murine tumor cells that stably express human TF, these cells are then treated with 1 μg to 5 μg per ml of tisotumab vedotin or 100 nM of MMAE for 4 days. In order to prepare dying cells for immunization, treated murine tumor cells are overlaid atop Histopaque, and centrifuged at 2000 g for 30 minutes. Dead and dying cells are pelleted underneath the Histopaque layer, and viability assessed by trypan blue exclusion. A sample with approximately <20% live cells as measured by trypan blue exclusion is obtained. Flash-frozen tumor cells are prepared by submerging the cells in liquid nitrogen for 10 seconds, followed by immersion in 37° C. water until completely thawed. The liquid nitrogen freeze-thaw process is repeated 5 times. Dead and dying human TF positive tumor cells are resuspended in phosphate buffered saline (PBS) and 2×10^6 cells are injected into the peritoneum of immune-competent Balb/c mice. Seven days later, mice receive a second immunization with dead and dying cells prepared in the same manner.
Fourteen days after initial immunization with the dead and dying human TF positive tumor cells, mice are subcutaneously implanted with 5×10^6 wild-type tumor cells and monitored for tumor growth. […] As these effects occur in the absence of any administered therapeutic agent, the administration of cells killed by tisotumab vedotin or MMAE is sufficient to generate long-lasting protective immune memory against subsequent tumor cell challenge. Protective immune memory is amplified by treating these mice with tisotumab vedotin in combination with an antibody that binds to murine PD-1.

HeLa cells [8] = assay: Imaging of RFP-labeled tubulin and ER-binding dye in HeLa cells treated with MMAE; format: cell-based; settings: 100 nM MMAE
Method: Treatment of HeLa cells with MMAE led to disassembly of the microtubule network and subsequent ER mislocalization. HeLa cells were transduced with a baculovirus encoding RFP-labeled Tubulin (CellLight Tubulin-RFP, ThermoFisher Scientific) and an ER-binding dye (ER-ID Green, Enzo Life Sciences). Cells were treated with 100 nM MMAE and imaged over time in the present of MMAE. Within 2 hours, fragmentation and disassembly of the microtubule network became evident, concurrent with the breakdown of the perinuclear organized ER lattice (FIGS. 2A and 2B). The condensed and mislocalized ER skeleton indicated severe ER stress within 8 hours.

advanced cervical cancer [9] = settings: in combination with chemotherapy; cited from earlier work
[10] = tested on: MDA-MB-231 cells (breast adenocarcinoma); assay: MDA-MB-231 xenograft model in humanized NSG mice; format: in vivo; settings: pembrolizumab alone, first dose 10 mg/kg, then 5 mg/kg every five days, IP
Method: Mice were subcutaneously inoculated with 5×10^6 MDA-MB-231 cells (breast adenocarcinoma; American Tissue Culture Collection (ATCC), cat. no. HTB-26), in 100 μL phosphate-buffered saline (PBS). Before inoculation, cells were cultured in DMEM with high glucose and HEPES without L-glutamine (Lonza, cat. no. BE12-[…]), 10% (v/v) donor bovine serum with iron New Zealand Origin (Thermo Fisher Scientific, DBSI, cat. no. 10371-029), 2 mM L-glutamine (Lonza, cat. no. BE17-[…]), 1 mM Na-pyruvate (Lonza, cat. no. BE13-[…]), MEM non-essential amino acids (Life Technologies, cat. no. 11140) and 1% (v/v) penicillin/streptomycin (Lonza, cat. no. DE17-[…]), in CellSTACK culture chambers (Corning, cat. no. 3313). Tumor size was determined by caliper measurement at least two times a week and tumor volume was calculated as 0.52×length×width^2. […] The first dose of the anti-PD-1 antibody (i.e., pembrolizumab) was 10 mg/kg, followed by 5 mg/kg every five days for a maximum of six treatments. […] The IgG1 isotype control antibody is the b12 antibody which is known to bind to HIV-1 gp120. […] Mice were housed in individually ventilated (IVC) cages, five mice per cage and identified by ear tags. […] Statistical comparison of tumor burden was performed using Mann-Whitney analysis on the last day that all treatment groups were intact. Kaplan-Meier analysis was performed based on tumor volume (>500 mm^3).

[11] = managed with interruptions of pembrolizumab, corticosteroids and/or other supportive care; cited from earlier work
advanced cervical cancer [12] = settings: Pembrolizumab 200 mg Q3W, 82 patients; cited from earlier work
[13] = compared to IgG1-MMAE ADC or tisotumab alone

Question: For `CC[C@H](C)[C@@H]([C@@H](CC(=O)N1CCC[C@H]1[C@H](OC)[C@@H](C)C(=O)N[C@H](C)[C@@H](O)c1ccccc1)OC)N(C)C(=O)[C@@H](NC(=O)[C@@H](NC)C(C)C)C(C)C` [MMAE, Monomethyl auristatin E, reference compound] (H-[NMeV]V[Dil][Dolaproine]-X1), which “ATF4 cleavage (PERK pathway)” value [1] is on record?
Answer: upregulation of ATF4 cleavage

Question: What about the “phosphorylation of IRE1” value [1] of the same molecule?
Answer: detected

Question: What about the “phosphorylation of JNK” value [1] of the same molecule?
Answer: increased phosphorylation

Question: And the ATP release/secretion ([2]; FIG. 5A)?
Answer: drove robust A) ATP secretion; also recorded: specific to tisotumab vedotin ADC and MMAE treatment

Question: And the HMGB1 release/secretion ([2]; FIG. 5C)?
Answer: drove robust A) ATP secretion and C) HMGB1 release; also recorded: specific to tisotumab vedotin ADC and MMAE treatment

Question: And the “chemotactic and inflammatory mediators from monocyte/macrophages after uptake of dead cells” value [3]?
Answer: elicit strong chemotactic and inflammatory mediators

Question: What about the “monocyte/macrophage activation, CD86 expression by flow cytometry” value [3, 13] of the same molecule?
Answer: drove monocyte/macrophage activations

Question: What about the “release of innate chemokines including MIP 1β” value [3, 13] of the same molecule?
Answer: induced release of innate chemokines including MIP 1β

Question: And the “T cell proliferation (CSFE dilution)” value (T cells)?
Answer: drove T cell proliferation

Question: What about the “production of IFNγ” value (T cells) of the same molecule?
Answer: production of T cell specific cytokines such as IL12P70 and IFNγ

Question: What about the “production of IL12p70” value (T cells) of the same molecule?
Answer: production of T cell specific cytokines such as IL12P70 and IFNγ

Question: And the “ATF4 cleavage (PERK pathway)” value [4]?
Answer: upregulation of ATF4 cleavage

Question: And the “phosphorylation of IRE1” value [4]?
Answer: detected

Question: What about the “phosphorylation of JNK” value [4] of the same molecule?
Answer: increased phosphorylation

Question: And the “secretion of ATP” value (HeLa cells [5])?
Answer: increased secretion of ATP and HMGB1

Question: What about the “secretion of HMGB1” value (HeLa cells [5]) of the same molecule?
Answer: increased secretion of ATP and HMGB1

Question: What about the “phosphorylation of IRE1” value (HeLa cells [6]) of the same molecule?
Answer: led to phosphorylation of the serine threonine kinase IRE1

Question: What about the “phosphorylation of JNK” value (HeLa cells [6]) of the same molecule?
Answer: elicited severe ER stress by phosphorylation of IRE1 and JNK

Question: What about the “survival after challenge with wild-type tumor cells” value [7] of the same molecule?
Answer: increased survival

Question: What about the “tumor growth after challenge with wild-type tumor cells” value [7] of the same molecule?
Answer: delayed tumor growth

Question: And the “time until fragmentation and disassembly of the microtubule network, with breakdown of the perinuclear ER lattice” value (HeLa cells [8])?
Answer: ≤ 2 h

Question: What about the “time until severe ER stress (condensed and mislocalized ER skeleton)” value (HeLa cells [8]) of the same molecule?
Answer: ≤ 8 h

Question: What does the source list for “tisotumab: anti-TF antibody 011; heavy chain variable region SEQ ID NO:7, light chain variable region SEQ ID NO:8”?
Answer: T cell proliferation (CSFE dilution) (T cells): did not elicit these responses; production of IFNγ (T cells): did not elicit these responses; production of IL12p70 (T cells): did not elicit these responses

Question: With Bevacizumab: an anti-VEGF antibody as the molecule, how does the “overall survival in clinical trials” value (advanced cervical cancer [9]) read?
Answer: improved overall survival

Question: What does the source list for “pembrolizumab: anti-PD-1 antibody, a checkpoint inhibitor; heavy chain SEQ ID NO:33 and light chain SEQ ID NO:34 [reference compound]”?
Answer: tumor burden as assessed by tumor volume [10]: hardly reduced tumor burden; reversibility of immune-related AEs (irAEs) [11]: most irAEs were reversible; objective response rate (advanced cervical cancer [12]): 12%; T cell proliferation driven by tisotumab vedotin or MMAE killed cells, effect of added pembrolizumab (T cells; 2 mg/ml of pembrolizumab): enhanced; production of IFNγ after tisotumab vedotin or MMAE killed cells, effect of added pembrolizumab (T cells; concomitant pembrolizumab): increased by concomitant pembrolizumab treatment; production of IL12p70 after tisotumab vedotin or MMAE killed cells, effect of added pembrolizumab (T cells; concomitant pembrolizumab): increased by concomitant pembrolizumab treatment
